In patent publication US9212205B2, “Nucleic acid binding compounds and methods of use” (University of Rochester, priority 2007, dated 2015):

Tests used:
[1] = target: HIV-1 frameshift regulatory RNA sequence (Seq I, SEQ ID NO:1); test: SPR binding of immobilized dimers to RNA; conditions: read-out: dissociation constant (Kd), affinity to the HIV-1 frameshift regulatory RNA sequence
Description: (§1) Graphical analysis of Surface Plasmon Resonance (SPR) data was carried out using DeltaGraph (Rockware Inc.). SPR analysis was conducted on a Reichert SR7000 refractometer using Reichert gold sensor slides that consist of a mixed self-assembled monolayer of thiol-PEG-alcohols and thio-PEG-carboxylic acids (˜9:1; PEG=polyethylene glycol). Amine functionalized small molecules were attached by […]/EDC coupling to the carboxy termini of the surface. After activating the monolayer, molecules were covalently attached through the addition of a 1 mg/mL solution of molecule in a sodium acetate buffer (20 mM, pH=5.5). Unreacted activated esters were quenched through the addition of ethanolamine. […]
To confirm this hypothesis, dissociation constants (Kd) were measured for dimers 1-1 and 1-3 by SPR (FIG. 7A) (Whitney et al., “Templated Ligand Assembly by Using G-quadruplex DNA and Dynamic Covalent Chemistry,” Angew. Chem. Int. Ed. 43:1143-1146 (2004); Lacy et al., “Influence of a Terminal Formamido Group on the Sequence Recognition of DNA by Polyamides,” J. Am. Chem. Soc. 124:2153-2163 (2002); Carrasco et al., “DNA Sequence Recognition by the Indolocarbazole Antitumor Antibiotic AT2433-B1 and Its Diastereoisomer,” Nucleic Acids Res. 30:1774-1781 (2002), each of which is hereby incorporated by reference in its entirety).

[2] = target: DNA sequence homologous to I (Seq II, SEQ ID NO:2); test: SPR binding specificity, Seq II
Description: as §1, with “ethanolamine. A flow rate of 10 μL/min and injection volumes of 150 μL was used throughout the experiment. RNA solutions were made to be 15.3 nM, 62.5 nM, 250 nM, 500 nM, 1 μM, 2 μM, 10 μM, and 50 μM.” for “ethanolamine.”
(§2) Specificity was assessed by measuring the affinity of 1-1 to three other oligonucleotides: the DNA sequence homologous to I (Seq II, FIG. 7C, SEQ ID NO:2), the alternate RNA stem-loop (Seq III, FIG. 7D, SEQ ID NO:3) (Karan et al., “RNA-Selective Coordination Complexes Identified via Dynamic Combinatorial Chemistry,” J. Am. Chem. Soc. 123:7455-7456 (2001), which is hereby incorporated by reference in its entirety), and an RNA stem loop with an altered loop sequence (Seq IV, FIG. 7E, SEQ ID NO:4).

[3] = target: alternate RNA stem-loop (Seq III, SEQ ID NO:3); test: SPR binding specificity, Seq III
Description: as §1, with “ethanolamine. A flow rate of 10 μL/min and injection volumes of 150 μL was used throughout the experiment. RNA solutions were made to be 15.3 nM, 62.5 nM, 250 nM, 500 nM, 1 μM, 2 μM, 10 μM, and 50 μM.” for “ethanolamine.”
as §2

[4] = target: RNA stem loop with an altered loop sequence (Seq IV, SEQ ID NO:4); test: SPR binding specificity, Seq IV; conditions: read-out: affinity for sequence IV
Description: as §1, with “ethanolamine. A flow rate of 10 μL/min and injection volumes of 150 μL was used throughout the experiment. RNA solutions were made to be 15.3 nM, 62.5 nM, 250 nM, 500 nM, 1 μM, 2 μM, 10 μM, and 50 μM.” for “ethanolamine.”
as §2

[5] = test system: HIV-1 frameshift-inducing RNA stem-loop; test: Resin-bead fluorescence microscopy screen (RBDCC) with Cy3-labeled RNA; format: binding; conditions: x-y: x resin-bound, y solution phase; 500 nM RNA stem-loop, 72 hours, 50 msec exposure
Description: First, as a control, 450 beads (150 of each size, 3 beads/compound, 387 nmol total) were placed in a 1.5 ml solid phase reaction vessel. To this was added a 1 ml solution of 1 μM RNA-Cy3 in phosphate buffer. This solution was agitated for 3 hours on a LabQuake™ rotator. After such time, the solution was drained by vacuum and washed three times with buffer (1 ml, 1 min. each). After washing, the resin was suspended in 2 ml buffer and placed in a Petri dish.
Next, RBDCC experiments were run in quadruplet. […] After such time, the solution was removed from 1 of the 4 experiments and the resin was washed with buffer, plated with 2 ml buffer, and analyzed by fluorescence microscopy as described above. […]
1, 2, and 3 were individually synthesized on TentaGel (0.86 nmol/bead), and equilibrated as described above in separate vessels containing only 1, 2, or 3 solution phase monomers and 500 nM RNA stem-loop, half the concentration used in the initial screen. After 72 hours the resin was washed in a manner identical to the conditions of screen number 4 (i.e., the highest stringency screen) and analyzed by fluorescence microscopy (50 msec. exposure) (see FIGS. 6A-I).

[6] = target: (CUG)109 RNA (SEQ ID NO:8)-MBNL1 protein interaction; test: Enzyme Fragmentation Complementation (EFC) assay of (CUG)109-MBNL1 binding inhibition; format: biochemical
Description: Small molecule-mediated inhibition of (CUG)109-MBNL1 binding was determined using an Enzyme Fragmentation Complementation (EFC) assay (Eglen et al., “β-Galactosidase Enzyme Fragment Complementation as A Novel Technology for High Throughput Screening,” Comb. Chem. High Throughput Screening 6:381-387 (2003), which is hereby incorporated by reference in its entirety). Briefly, this was performed by first immobilizing (CUG)109 RNA (SEQ ID NO:8) to a 96 well plate. Next, the immobilized RNA was incubated with recombinant MBNL1 fused to the PL enzyme donor peptide (PL-MBNL1, where “PL” is the commercial “ProLabel” enzyme donor peptide) (DiscoveRx PathHunter ProLabel Detection kit) in the presence of varying concentrations of small molecule inhibitor. The Enzyme Acceptor (EA-β-galactosidase) complement was then added, and the activity of the resulting plate—(CUG)109 bound (PL-MBNL1)-(EA-β-galactosidase) activity was monitored via a chemiluminsecent substrate. Only the EA-β-Gal bound to the PL-MBNL1 is capable of performing the luminescent reaction and, as such, any luminescence correlates to the amount of MBNL1 bound to the (CUG)109 immobilized on the plate. Wells lacking (CUG)109 RNA served as a background measure of non-specific luminescence and were subtracted from each experiment to yield a 0% bound value. Wells containing no small molecule inhibitor added served as 100% bound. […]

**Q.** `CCc1nc2ccccc2cc1C(=O)N[C@@H](CSSC[C@H](NC(=O)c1cc2ccccc2nc1CC)C(=O)N1CCC[C@H]1C(=O)N[C@@H](Cc1ccccc1)C(=O)NCCCN)C(=O)N1CCC[C@H]1C(=O)N[C@@H](Cc1ccccc1)C(=O)NCCCN` [dimer 1-1] was tested. Which Kd [1] did it give?
**A.** The Kd was 1.9 µM.

**Q.** And the “affinity for sequence II” value [2]?
**A.** Its value is “no measurable affinity”.

**Q.** And the “affinity for sequence III” value [3]?
**A.** Its value is “no measurable affinity”.

**Q.** And the Kd [4]?
**A.** Its Kd is over 90 µM.

**Q.** And the “affinity for the RNA stem-loop by bead fluorescence intensity” value [5]?
**A.** Its value is “highest affinity”.

**Q.** What about the “Ki, inhibition of the (CUG)n MBNL1 interaction” value [6] of the same molecule?
**A.** The value was “do not show any inhibitory effect”.
